Tests used:
α4β7 = molecular target: T1, α4β7 (Homo sapiens, UniProt P13612+P26010); assay: Direct binding assay for α4β7 (VCAM-Ig, JY cells)
T1 construct: host or cells: JY human B-cell line
T1 sequence (P13612 34-1032): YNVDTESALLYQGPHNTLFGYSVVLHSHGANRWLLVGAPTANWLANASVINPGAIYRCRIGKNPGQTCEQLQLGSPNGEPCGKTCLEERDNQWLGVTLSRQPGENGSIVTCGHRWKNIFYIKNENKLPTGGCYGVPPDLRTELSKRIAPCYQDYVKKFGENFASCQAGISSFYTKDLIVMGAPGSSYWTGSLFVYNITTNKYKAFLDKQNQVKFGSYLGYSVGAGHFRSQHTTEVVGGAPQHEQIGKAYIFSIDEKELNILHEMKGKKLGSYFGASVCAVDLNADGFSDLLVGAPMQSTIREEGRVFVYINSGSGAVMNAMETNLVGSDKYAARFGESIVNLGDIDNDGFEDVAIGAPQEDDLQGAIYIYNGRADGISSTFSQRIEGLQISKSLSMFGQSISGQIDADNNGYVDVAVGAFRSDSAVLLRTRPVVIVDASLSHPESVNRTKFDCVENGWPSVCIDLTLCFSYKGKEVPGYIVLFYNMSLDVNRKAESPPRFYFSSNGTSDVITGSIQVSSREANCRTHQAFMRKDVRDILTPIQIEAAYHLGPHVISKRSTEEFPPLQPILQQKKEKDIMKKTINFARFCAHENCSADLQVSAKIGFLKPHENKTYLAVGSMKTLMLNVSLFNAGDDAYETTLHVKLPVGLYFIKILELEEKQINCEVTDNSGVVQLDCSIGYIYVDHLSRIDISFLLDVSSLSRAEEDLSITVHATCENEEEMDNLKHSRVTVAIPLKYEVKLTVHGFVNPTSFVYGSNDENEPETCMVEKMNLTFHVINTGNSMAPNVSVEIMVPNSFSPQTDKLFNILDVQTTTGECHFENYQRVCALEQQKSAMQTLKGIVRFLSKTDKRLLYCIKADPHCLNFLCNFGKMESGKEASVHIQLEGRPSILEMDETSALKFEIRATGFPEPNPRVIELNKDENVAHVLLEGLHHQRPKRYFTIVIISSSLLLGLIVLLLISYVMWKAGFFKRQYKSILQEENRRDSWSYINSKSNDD
T1 sequence (P26010 20-798): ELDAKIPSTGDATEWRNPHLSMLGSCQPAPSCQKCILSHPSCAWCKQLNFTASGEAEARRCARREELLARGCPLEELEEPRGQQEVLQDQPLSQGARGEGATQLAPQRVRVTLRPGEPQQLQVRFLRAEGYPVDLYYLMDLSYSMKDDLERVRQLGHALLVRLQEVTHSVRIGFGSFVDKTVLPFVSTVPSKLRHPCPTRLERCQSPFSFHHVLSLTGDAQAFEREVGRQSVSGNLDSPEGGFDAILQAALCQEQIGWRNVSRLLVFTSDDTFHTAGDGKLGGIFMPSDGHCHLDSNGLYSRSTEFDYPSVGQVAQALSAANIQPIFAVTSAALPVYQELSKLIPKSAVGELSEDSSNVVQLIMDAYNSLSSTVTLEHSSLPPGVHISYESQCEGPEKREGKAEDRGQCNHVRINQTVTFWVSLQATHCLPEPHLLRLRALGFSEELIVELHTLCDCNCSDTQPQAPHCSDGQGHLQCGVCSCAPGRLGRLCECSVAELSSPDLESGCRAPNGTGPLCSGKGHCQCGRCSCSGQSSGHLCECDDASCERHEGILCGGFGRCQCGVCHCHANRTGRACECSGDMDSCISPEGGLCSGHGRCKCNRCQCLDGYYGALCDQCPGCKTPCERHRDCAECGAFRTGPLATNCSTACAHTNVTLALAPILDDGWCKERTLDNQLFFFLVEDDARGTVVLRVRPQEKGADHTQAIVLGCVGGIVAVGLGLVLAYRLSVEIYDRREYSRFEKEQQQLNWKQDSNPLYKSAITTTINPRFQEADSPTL
Experimental: The results presented in Table 3 summarize the integrin selectivity for PEGylated inhibitors. The selectivity of the PEGylated inhibitors for the four integrins indicated were tested in adhesion formats for α1β1 and α2β1, and by direct binding for α4β7. Serial dilutions of each compound were tested and IC50 values calculated from the concentration dependence of the inhibition curves. KD values derived from kinetic data are shown for binding to α4β1.

[1] = Pharmacokinetics in female Lewis rats, noncompartmental analysis; details: rat, in vivo
Experimental: Blood samples (250 μL/bleed) were obtained at specific timepoints after administration. For compound H, blood samples were drawn at 0, 8 minutes, 15 minutes, 30 minutes, and after 1 hour, 2, 4, 6, 8, 24, 32, 48, 72 and 168 hours following i.v. administration, and 1, 2, 4, 6, 8, 24, 32, 48, and 72 hours following s.c. administration. Serum samples were analyzed for compound H levels using an electrochemiluminescence assay. PK parameters were calculated from the […] data by noncompartmental analysis. PK parameters include CMAX (maximum serum concentration), tMAX (time to achieve maximum serum concentration), CL (systemic clearance), Vss (volume of distribution at steady state), t1/2 (terminal phase half-life), and bioavailability. Area under the curve (AUC) was calculated using the trapezoidal rule. Percent bioavailability was calculated from the following equation: (AUCextravascular/AUCIV)×(DoseIV/Doseextravascular)×100. For compound R^1, blood samples were drawn and analyzed as previously described (see Leone, D. R., et al. (2003) J. Pharmacol. Exp. Ther. 305:1150–1162).
Dilutions of test samples in 50 mM HEPES pH 7.5, 100 mM NaCl, 0.1% Triton X-100, 1 mM MnCl2, 1% rat plasma, 50 ng/mL α4β1 and 0.1 μg/mL ruthenium labeled mAb B5G10 were incubated at room temperature for 20 min. 0.5 nM A-biotin was added and samples were incubated for 60 minutes at room temperature. 50 μL of a 0.5 mg/mL solution of Dynabeads M-280 Streptavidin beads (Cat No. 402–175-02, Igen, Inc., Gaithersburg, Md.) that have been prepared in assay buffer containing 8% rat plasma was added and the samples were incubated for 30 minutes at room temperature with constant mixing. 150 μL of Origen assay buffer was added and samples were analyzed in a model 1100–1000 Origen analyzer (Igen, Inc) following the manufacturer's instructions. Concentrations of compound H were interpolated from a standard curve generated with compound H that had been diluted with plasma.
The pharmacokinetic properties of compounds H and R were evaluated by noncompartmental analysis following i.v. and s.c. administration in female Lewis rats (FIG. 2). […] Compound R was rapidly cleared from circulation.

Compound	affinity higher for α4β1 than for α4β7 (α4β7; α4β1 versus α4β7)	AUC ([1]; iv, 1 mg/kg) [ng·h/mL]	Cmax ([1]; iv, 1 mg/kg) [ng/mL]	Tmax ([1]; iv, 1 mg/kg) [h]	Vd ([1]; iv, 1 mg/kg) [L/kg]	clearance ([1]; iv, 1 mg/kg) [mL/min/kg]	half-life ([1]; iv, 1 mg/kg) [h]	AUC ([1]; sc, 10 mg/kg) [ng·h/mL]	CL ([1]; sc, 10 mg/kg) [mL/min/kg]	Cmax ([1]; sc, 10 mg/kg) [ng/mL]	Tmax ([1]; sc, 10 mg/kg) [h]	bioavailability ([1]; sc, 10 mg/kg) [%]	half-life ([1]; sc, 10 mg/kg) [h]	time >100 ng/mL blood levels were maintained ([1]; sc, 10 mg/kg) [h]	IC50 (α4β7; direct binding) [µM]	half-life ([1]; iv) [h]	bioavailability ([1]; sc) [%]
Cc1ccccc1NC(=O)Nc1ccc(CC(=O)N(C)[C@@H](CC(C)C)C(=O)NCC[C@H](NC(=O)[C@@H]2CCCN2S(=O)(=O)c2cc(Cl)cc(Cl)c2)C(=O)O)cc1 [Compound R, 2S-{[1-(3,5-dichloro-benzenesulfonyl)-pyrrolidine-2S-carbonyl]-amino}-4-[4-methyl-2S-(methyl-{2-[4-(3-o-tolyl-ureido)-phenyl]-acetyl}-amino)-pentanoylamino]-butyric acid]	> 2,000 fold	2300	13100	0	0.168	7.1	1.1	6100	27.17	780	0.5	20	2.7	12	–	–	–
Cc1ccccc1NC(=O)Nc1ccc(CC(=O)N(C)[C@@H](CC(C)C)C(=O)NCC[C@H](NC(=O)C2CCCN2S(=O)(=O)c2ccccc2)C(=O)O)cc1 (stereo partly drawn) [Compound B, 2S-[(1-benzenesulfonyl-pyrrolidine-2S-carbonyl)-amino]-4-[4-methyl-2S-(methyl-{2-[4-(3-o-tolyl-ureido)-phenyl]-acetyl}-amino)-pentanoylamino]-butyric acid]	–	–	–	–	–	–	–	–	–	–	–	–	–	–	> 1	2.5	21

Reference: patent US7196112B2, “Cell adhesion inhibitors” (Biogen Idec MA Inc., priority 2004, dated 2007)
